{"source": "patent US20150025080A1", "about": "“SOLID DISPERSIONS OF SITAGLIPTIN AND PROCESSES FOR THEIR PREPARATION” (RANBAXY LABORATORIES LIMITED, priority 2011, published 2015)", "experiment": "Storage stability in humidity chamber at 50% RH and 25° C., evaluated by XRPD", "format": "physicochemical", "conditions": "about 50% relative humidity", "procedure": "The X-ray powder diffractograms (XRPD) of the samples were determined by using Instrument: PANalytical; Mode: Expert PRO; Detector: Xcelerator; ScanRange: 3-40; Step size: 0.02; Range: 3-40° 2 theta; CuKα radiation at 45 kV.\n0.52 g of the product obtained as per Example 2 was stored in double sealed polybags in a humidity chamber maintained at 50% RH and 25° C. for 4 days to evaluate the stability. The XRPD pattern of the compound stored at 50% RH and 25° C. for 4 days is depicted in FIG. 10.\n0.54 g of the product obtained as per Example 2 was stored in double sealed polybags in a humidity chamber maintained at 50% RH and 25° C. for 10 days to evaluate the stability. The XRPD pattern of the compound stored at 50% RH and 25° C. for 10 days is depicted in FIG. 11.\n0.54 g of the product obtained as per Example 5 was stored in double-sealed polybags in a humidity chamber maintained at 50% RH and 25° C. for 4 days to evaluate the stability. The XRPD pattern of the product stored at 50% RH and 25° C. for 4 days is depicted in FIG. 13.\n0.53 g of the product obtained as per Example 5 was stored in double-sealed polybags in a humidity chamber maintained at 50% RH and 25° C. for 10 days to evaluate the stability. The XRPD pattern of the product stored at 50% RH and 25° C. for 10 days is depicted in FIG. 14. […]", "data": [{"smiles": "N[C@@H](CC(=O)N1CCn2c(nnc2C(F)(F)F)C1)Cc1cc(F)c(F)cc1F", "note": "[sitagliptin dihydrogen phosphate]", "values": [{"measurement": "time period in which the amorphous form tends to undergo crystallization", "result": "about 4 days"}]}]}
